This note sets out measurements from ChEMBL document CHEMBL5335792, “Chemical exploration of TGR5 functional hot-spots: Synthesis and structure-activity relationships of C7- and C23-Substituted cholic acid derivatives” (Eur J Med Chem, 2023).

A short description of the data set: physchem. The settings on record: 0.15 M sodium salt.

The structures appear in SMILES notation.

Turning to `C[C@H](CCC(=O)O)[C@H]1CC[C@H]2[C@@H]3[C@H](O)C[C@@H]4C[C@H](O)CC[C@]4(C)[C@H]3C[C@H](O)[C@]12C` [CHOLIC ACID], the solubility (commonly how much of the substance goes into solution per volume) was 12 mM.
